Read-outs that look alike come from different tables or passages of the source.
Tests used:
[1] = target: receptors (Bioprint panel) (Rattus norvegicus, UniProt P35439); assay: biochemical; format: binding; settings: read-out: % Inhibition of Control Specific Binding
[2] = target: receptors (Bioprint panel) (Homo sapiens, UniProt P32245); assay: biochemical; format: binding; settings: MELANOCORTIN MC4 (h) (agonist radioligand); 10 μM; read-out: % Inhibition of Control Specific Binding
[3] = target: receptors (Bioprint panel) (Homo sapiens, UniProt P43119); assay: biochemical; format: binding; settings: […] (PGI2) (h) (agonist radioligand); 10 μM; read-out: % Inhibition of Control Specific Binding
[4] = target: receptors (Bioprint panel) (Homo sapiens, UniProt Q9H3N8); assay: biochemical; format: binding; settings: HISTAMINE H4 (h) (agonist radioligand); 10 μM; read-out: % Inhibition of Control Specific Binding
[5] = target: receptors (Bioprint panel) (Homo sapiens, UniProt P41146); assay: biochemical; format: binding; settings: OPIOD & OPIOID-LIKE NOP (ORL1) (h) (agonist radioligand); 10 μM; read-out: % Inhibition of Control Specific Binding
Chain of receptors (Bioprint panel) (Homo sapiens, UniProt P41146) (P41146 whole entry): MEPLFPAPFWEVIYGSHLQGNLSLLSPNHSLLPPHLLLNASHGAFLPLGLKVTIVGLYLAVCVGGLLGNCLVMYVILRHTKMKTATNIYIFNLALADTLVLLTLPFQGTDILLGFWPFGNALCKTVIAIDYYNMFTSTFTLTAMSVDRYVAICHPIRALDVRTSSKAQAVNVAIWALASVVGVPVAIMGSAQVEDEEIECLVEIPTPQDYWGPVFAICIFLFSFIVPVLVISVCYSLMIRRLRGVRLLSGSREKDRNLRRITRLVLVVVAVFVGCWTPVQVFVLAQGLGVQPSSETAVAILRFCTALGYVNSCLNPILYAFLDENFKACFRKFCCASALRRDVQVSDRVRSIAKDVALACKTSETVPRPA

[6] = target: receptors (Bioprint panel) (Homo sapiens, UniProt P25929); assay: biochemical; format: binding; settings: NE[…] Y1 (h) (agonist radioligand); 10 μM; read-out: % Inhibition of Control Specific Binding
Chain of receptors (Bioprint panel) (Homo sapiens, UniProt P25929) (P25929 whole entry): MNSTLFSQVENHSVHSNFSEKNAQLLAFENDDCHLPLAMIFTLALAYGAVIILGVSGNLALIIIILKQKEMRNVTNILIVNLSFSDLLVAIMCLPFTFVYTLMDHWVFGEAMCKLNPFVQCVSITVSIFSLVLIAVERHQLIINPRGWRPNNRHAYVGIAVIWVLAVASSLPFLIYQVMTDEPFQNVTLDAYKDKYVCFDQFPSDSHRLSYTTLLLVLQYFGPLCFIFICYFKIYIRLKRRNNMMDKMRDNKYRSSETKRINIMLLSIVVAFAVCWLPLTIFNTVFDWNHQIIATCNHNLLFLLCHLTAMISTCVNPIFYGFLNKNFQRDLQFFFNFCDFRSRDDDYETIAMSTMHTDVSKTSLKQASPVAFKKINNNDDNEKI

[7] = target: receptors (Bioprint panel) (Rattus norvegicus, UniProt P28564); assay: biochemical; format: binding; settings: read-out: % Inhibition of Control Specific Binding
[8] = target: receptors (Bioprint panel) (Homo sapiens, UniProt P46098); assay: biochemical; format: binding; settings: read-out: % Inhibition of Control Specific Binding
[9] = target: receptors (Bioprint panel) (Mus musculus, UniProt Q01727); assay: biochemical; format: binding; settings: MELANOCORTIN MC1 (agonist radioligand); 10 μM; read-out: % Inhibition of Control Specific Binding
Chain of receptors (Bioprint panel) (Mus musculus, UniProt Q01727) (Q01727 whole entry): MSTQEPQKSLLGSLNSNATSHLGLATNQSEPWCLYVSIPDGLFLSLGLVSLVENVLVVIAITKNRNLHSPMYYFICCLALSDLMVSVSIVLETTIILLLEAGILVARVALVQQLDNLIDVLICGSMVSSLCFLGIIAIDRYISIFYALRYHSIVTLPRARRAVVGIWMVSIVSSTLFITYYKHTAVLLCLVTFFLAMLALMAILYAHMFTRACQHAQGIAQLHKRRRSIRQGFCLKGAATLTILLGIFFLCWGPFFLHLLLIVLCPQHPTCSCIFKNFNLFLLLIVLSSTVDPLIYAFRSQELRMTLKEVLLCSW

[10] = target: receptors (Bioprint panel) (Homo sapiens, UniProt P29274); assay: biochemical; format: binding; settings: ADENOSINE A2A (h) (agonist radioligand); 10 μM; read-out: % Inhibition of Control Specific Binding
[11] = target: receptors (Bioprint panel) (Rattus norvegicus, UniProt P28565); assay: biochemical; format: binding; settings: read-out: % Inhibition of Control Specific Binding
[12] = target: receptors (Bioprint panel) (Homo sapiens, UniProt P43088); assay: biochemical; format: binding; settings: […] (h) (agonist radioligand); 10 μM; read-out: % Inhibition of Control Specific Binding
Chain of receptors (Bioprint panel) (Homo sapiens, UniProt P43088) (P43088 whole entry): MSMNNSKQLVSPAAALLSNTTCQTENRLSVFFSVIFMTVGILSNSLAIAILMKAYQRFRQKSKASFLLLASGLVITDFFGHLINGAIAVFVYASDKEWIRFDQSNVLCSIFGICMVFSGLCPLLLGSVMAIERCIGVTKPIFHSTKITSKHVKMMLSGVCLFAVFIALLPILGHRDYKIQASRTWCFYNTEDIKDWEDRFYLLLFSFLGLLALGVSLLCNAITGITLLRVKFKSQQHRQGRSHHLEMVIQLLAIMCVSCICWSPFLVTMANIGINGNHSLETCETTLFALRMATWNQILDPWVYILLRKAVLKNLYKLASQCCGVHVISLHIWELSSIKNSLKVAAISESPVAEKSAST

[13] = target: receptors (Bioprint panel) (Homo sapiens, UniProt P35414); assay: biochemical; format: binding; settings: APJ (apelin) (h) (agonist radioligand); 10 μM; read-out: % Inhibition of Control Specific Binding
Chain of receptors (Bioprint panel) (Homo sapiens, UniProt P35414) (P35414 whole entry): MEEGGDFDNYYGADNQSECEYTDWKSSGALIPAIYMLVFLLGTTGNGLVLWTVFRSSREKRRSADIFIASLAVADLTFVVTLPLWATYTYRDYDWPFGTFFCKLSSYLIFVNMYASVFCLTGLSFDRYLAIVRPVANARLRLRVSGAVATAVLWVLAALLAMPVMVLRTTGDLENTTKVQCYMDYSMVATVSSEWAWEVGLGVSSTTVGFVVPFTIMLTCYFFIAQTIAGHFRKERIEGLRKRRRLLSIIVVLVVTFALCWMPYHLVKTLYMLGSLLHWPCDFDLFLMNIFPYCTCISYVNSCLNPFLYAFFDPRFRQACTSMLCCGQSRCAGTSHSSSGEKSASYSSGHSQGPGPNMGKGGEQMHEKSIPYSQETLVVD

[14] = target: receptors (Bioprint panel) (Homo sapiens, UniProt P13945); assay: biochemical; format: binding; settings: Adrenergic beta3; 10 μM; read-out: % Inhibition of Control Specific Binding
Chain of receptors (Bioprint panel) (Homo sapiens, UniProt P13945) (P13945 whole entry): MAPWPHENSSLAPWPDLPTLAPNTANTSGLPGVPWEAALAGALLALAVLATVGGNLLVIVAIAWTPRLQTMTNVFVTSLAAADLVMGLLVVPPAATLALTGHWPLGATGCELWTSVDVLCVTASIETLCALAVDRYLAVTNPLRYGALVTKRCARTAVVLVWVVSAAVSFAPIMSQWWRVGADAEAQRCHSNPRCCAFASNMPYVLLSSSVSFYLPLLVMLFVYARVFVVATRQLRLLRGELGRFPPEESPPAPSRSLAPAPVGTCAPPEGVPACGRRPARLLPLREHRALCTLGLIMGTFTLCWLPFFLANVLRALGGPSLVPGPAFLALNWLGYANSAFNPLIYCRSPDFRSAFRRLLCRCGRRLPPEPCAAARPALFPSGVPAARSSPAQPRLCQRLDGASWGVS

[15] = target: receptors (Bioprint panel) (Homo sapiens, UniProt P08908); assay: biochemical; format: binding; settings: read-out: % Inhibition of Control Specific Binding
Chain of receptors (Bioprint panel) (Homo sapiens, UniProt P08908) (P08908 whole entry): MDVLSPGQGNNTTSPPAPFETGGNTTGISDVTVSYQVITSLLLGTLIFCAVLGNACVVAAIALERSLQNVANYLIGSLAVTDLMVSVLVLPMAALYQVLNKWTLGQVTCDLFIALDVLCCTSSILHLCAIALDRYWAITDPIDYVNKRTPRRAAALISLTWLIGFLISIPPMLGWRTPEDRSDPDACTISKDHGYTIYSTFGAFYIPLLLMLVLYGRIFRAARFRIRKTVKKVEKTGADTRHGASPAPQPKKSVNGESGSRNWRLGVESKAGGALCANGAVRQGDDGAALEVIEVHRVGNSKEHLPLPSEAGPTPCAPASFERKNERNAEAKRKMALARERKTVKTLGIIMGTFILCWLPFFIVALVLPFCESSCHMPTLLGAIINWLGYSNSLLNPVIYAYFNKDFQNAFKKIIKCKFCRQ

[16] = target: receptors (Bioprint panel) (Homo sapiens, UniProt Q9Y271); assay: biochemical; format: binding; settings: read-out: % Inhibition of Control Specific Binding
[17] = target: receptors (Bioprint panel) (Homo sapiens, UniProt Q9UKP6); assay: biochemical; format: binding; settings: read-out: % Inhibition of Control Specific Binding
[18] = target: receptors (Bioprint panel) (Homo sapiens, UniProt P34998); assay: biochemical; format: binding; settings: COR[…] FACTOR CRF1 (h) (agonist radioligand); 10 μM; read-out: % Inhibition of Control Specific Binding
Chain of receptors (Bioprint panel) (Homo sapiens, UniProt P34998) (P34998 24-415): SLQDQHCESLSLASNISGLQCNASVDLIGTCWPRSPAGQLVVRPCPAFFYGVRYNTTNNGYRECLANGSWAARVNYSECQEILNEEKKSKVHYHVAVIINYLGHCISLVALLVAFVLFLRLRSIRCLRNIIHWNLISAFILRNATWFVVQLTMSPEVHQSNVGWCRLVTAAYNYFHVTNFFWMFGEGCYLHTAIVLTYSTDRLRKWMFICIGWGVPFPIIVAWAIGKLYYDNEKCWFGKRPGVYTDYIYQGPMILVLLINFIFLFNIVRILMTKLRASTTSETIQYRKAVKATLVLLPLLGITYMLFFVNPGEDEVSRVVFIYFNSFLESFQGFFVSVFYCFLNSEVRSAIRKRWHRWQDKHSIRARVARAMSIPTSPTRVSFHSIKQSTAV

[19] = target: receptors (Bioprint panel) (Homo sapiens, UniProt P07550); assay: biochemical; format: binding; settings: […] beta 2 (h) (agonist radioligand); 10 μM; read-out: % Inhibition of Control Specific Binding
[20] = target: receptors (Bioprint panel) (Homo sapiens, UniProt P28335); assay: biochemical; format: binding; settings: read-out: % Inhibition of Control Specific Binding
[21] = target: receptors (Bioprint panel) (Homo sapiens, UniProt P30542); assay: biochemical; format: binding; settings: ADENOSINE A1 (h) (agonist radioligand); 10 μM; read-out: % Inhibition of Control Specific Binding
Chain of receptors (Bioprint panel) (Homo sapiens, UniProt P30542) (P30542 whole entry): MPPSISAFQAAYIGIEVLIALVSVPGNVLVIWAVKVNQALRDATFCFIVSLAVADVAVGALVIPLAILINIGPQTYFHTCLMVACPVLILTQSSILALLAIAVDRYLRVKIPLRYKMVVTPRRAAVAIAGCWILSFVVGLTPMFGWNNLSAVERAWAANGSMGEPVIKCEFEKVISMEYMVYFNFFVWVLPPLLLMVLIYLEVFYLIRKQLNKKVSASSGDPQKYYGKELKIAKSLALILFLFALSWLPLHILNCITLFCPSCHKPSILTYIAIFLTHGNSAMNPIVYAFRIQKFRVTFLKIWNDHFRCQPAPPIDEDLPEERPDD

[22] = target: receptors (Bioprint panel) (Homo sapiens, UniProt P29275); assay: biochemical; format: binding; settings: ADENOSINE A2B (h) (antagonist radioligand); 10 μM; read-out: % Inhibition of Control Specific Binding
Chain of receptors (Bioprint panel) (Homo sapiens, UniProt P29275) (P29275 whole entry): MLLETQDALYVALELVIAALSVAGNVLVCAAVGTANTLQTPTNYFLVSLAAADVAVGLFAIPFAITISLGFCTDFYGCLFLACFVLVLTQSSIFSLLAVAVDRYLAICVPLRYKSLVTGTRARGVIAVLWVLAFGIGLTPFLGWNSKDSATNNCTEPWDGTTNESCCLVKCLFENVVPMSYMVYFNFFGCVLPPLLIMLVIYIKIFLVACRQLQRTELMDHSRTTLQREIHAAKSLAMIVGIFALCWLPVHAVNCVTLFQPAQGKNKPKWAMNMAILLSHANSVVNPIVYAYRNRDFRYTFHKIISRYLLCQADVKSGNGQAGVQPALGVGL

[23] = target: receptors (Bioprint panel) (Homo sapiens, UniProt P08588); assay: biochemical; format: binding; settings: […] beta 1 (h) (agonist radioligand); 10 μM; read-out: % Inhibition of Control Specific Binding
[24] = target: receptors (Bioprint panel) (Homo sapiens, UniProt Q01959); assay: biochemical; format: binding; settings: dopamine transporter (h) (antagonist radioligand); 10 μM; read-out: % Inhibition of Control Specific Binding
Chain of receptors (Bioprint panel) (Homo sapiens, UniProt Q01959) (Q01959 whole entry): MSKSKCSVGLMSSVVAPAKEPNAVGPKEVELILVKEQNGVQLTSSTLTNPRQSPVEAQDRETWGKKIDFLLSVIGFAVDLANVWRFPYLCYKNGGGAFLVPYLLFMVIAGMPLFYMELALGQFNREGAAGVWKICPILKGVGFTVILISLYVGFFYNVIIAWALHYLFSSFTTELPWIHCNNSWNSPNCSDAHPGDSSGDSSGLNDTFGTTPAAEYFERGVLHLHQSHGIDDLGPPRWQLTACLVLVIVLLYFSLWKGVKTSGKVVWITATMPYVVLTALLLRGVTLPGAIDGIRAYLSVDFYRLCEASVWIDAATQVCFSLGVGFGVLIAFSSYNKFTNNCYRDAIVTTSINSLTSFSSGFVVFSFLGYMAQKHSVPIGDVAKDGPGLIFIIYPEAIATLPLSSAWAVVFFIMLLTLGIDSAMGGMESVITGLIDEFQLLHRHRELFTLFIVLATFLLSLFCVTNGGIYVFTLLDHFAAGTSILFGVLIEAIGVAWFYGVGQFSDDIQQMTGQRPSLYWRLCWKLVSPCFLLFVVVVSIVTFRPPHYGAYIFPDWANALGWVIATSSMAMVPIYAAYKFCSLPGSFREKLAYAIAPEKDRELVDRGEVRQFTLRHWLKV

[25] = target: T1, receptors (Bioprint panel) (Homo sapiens, UniProt P30556); assay: biochemical; format: binding; settings: A[…] AT1 (h) (antagonist radioligand); 10 μM; read-out: % Inhibition of Control Specific Binding
T1 construct: other: ANGIOTENSIN II AT1 (h) (antagonist radioligand); 10 μM

[26] = target: receptors (Bioprint panel) (Homo sapiens, UniProt P31645); assay: biochemical; format: binding; settings: 5-HT transporter (h) (antagonist radioligand); 10 μM; read-out: % Inhibition of Control Specific Binding
[27] = target: receptors (Bioprint panel) (Homo sapiens, UniProt P50406); assay: biochemical; format: binding; settings: read-out: % Inhibition of Control Specific Binding
cannabinoid CB2 (h) = cannabinoid CB2 (h) (Homo sapiens, UniProt P34972); assay: Bioprint radioligand binding assay
Chain of cannabinoid CB2 (h) (P34972 whole entry): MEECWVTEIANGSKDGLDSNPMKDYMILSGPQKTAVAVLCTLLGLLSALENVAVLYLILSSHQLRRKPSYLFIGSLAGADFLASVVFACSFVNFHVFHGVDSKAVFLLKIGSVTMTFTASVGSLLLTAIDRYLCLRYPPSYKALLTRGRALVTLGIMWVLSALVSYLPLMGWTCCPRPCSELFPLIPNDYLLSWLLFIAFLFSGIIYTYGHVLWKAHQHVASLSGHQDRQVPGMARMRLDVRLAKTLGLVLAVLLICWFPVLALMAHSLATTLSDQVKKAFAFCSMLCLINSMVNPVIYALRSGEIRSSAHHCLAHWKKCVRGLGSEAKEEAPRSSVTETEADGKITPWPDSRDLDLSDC

`CC(C)=CCC[C@H](CO)[C@@H]1CC[C@@H](C)c2c1cc(C)c(O)c2O` [Compound 1, 7,8,18-trihydroxyserrulat-14-ene] was tested, and the inhibition at 10 µM [1] was 4%, the inhibition at 10 µM [2] was 37% and the inhibition at 10 µM [3] was 16%. For the same compound, the inhibition at 10 µM [4] was 23%, the inhibition at 10 µM [5] was -4% and the inhibition at 10 µM [6] was 29%. It also gave an inhibition at 10 µM [7] of 42%, an inhibition at 10 µM [8] of -2% and an inhibition at 10 µM [9] of 11%. The inhibition at 10 µM [10] was 18%, the inhibition at 10 µM [11] was 18% and the inhibition at 10 µM [12] was 54%. The inhibition at 10 µM [13] was 24%, the inhibition at 10 µM [14] was 33% and the inhibition at 10 µM [15] was -18%. It also gave an inhibition at 10 µM [16] of 10%, an inhibition at 10 µM [17] of 46% and an inhibition at 10 µM [18] of 34%. For the same compound, the inhibition at 10 µM [19] was 2%, the inhibition at 10 µM [20] was 32% and the inhibition at 10 µM [21] was 10%. For the same compound, the inhibition at 10 µM [22] was 8%, the inhibition at 10 µM [23] was 19% and the inhibition at 10 µM [24] was 63%. For the same compound, the inhibition at 10 µM [25] was 60%, the inhibition at 10 µM [26] was 56% and the inhibition at 10 µM [27] was 42%. The inhibition at 10 µM (cannabinoid CB2 (h); CANNABINOID CB2 (h) (agonist radioligand), read-out: % Inhibition of Control Specific Binding) was 71% and the inhibition at 10 µM (cannabinoid CB2 (h); read-out: % inhibition of control specific binding) was 71%.

From patent US11331299B2, “Medicinal use of serrulatane diterpenes” (The University of Sydney, priority 2016, dated 2022)
